IC50 and bioavailability data for 16 molecules are collected here from patent publication US11773071B2, “Benzothiazepine compounds and their use as bile acid modulators” (Albireo AB, priority 2019, dated 2023).

In series [1] the target is T1, Human IBAT (Homo sapiens, UniProt Q12908).
T1 construct: expressed in transfected cells; Puromycin-selected
T1 sequence (Q12908 1-348): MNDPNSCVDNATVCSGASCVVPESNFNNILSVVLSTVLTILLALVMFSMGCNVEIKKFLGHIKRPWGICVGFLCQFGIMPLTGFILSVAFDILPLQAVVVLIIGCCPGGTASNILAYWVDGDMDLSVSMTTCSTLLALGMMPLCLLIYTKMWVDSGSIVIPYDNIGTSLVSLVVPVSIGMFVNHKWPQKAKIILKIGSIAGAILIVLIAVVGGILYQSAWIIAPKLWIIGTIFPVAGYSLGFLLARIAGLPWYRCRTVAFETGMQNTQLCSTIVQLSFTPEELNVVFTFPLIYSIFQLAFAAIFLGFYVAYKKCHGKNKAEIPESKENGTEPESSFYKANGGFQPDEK
Description: IBAT (h/m) assay, human IBAT-overexpressing cells, 3H-taurocholic acid uptake. The series is classed as cell-based. The following applies: 0.25 μM 3H-taurocholic acid and 5 μM cold taurocholic acid, 20 minutes, read-out: hIBAT IC50. The method in brief: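 Human or mouse IBAT-overexpressing cells, seeded 48 h before the assay, were incubated 20 min at 37 °C with 0.25 μM 3H-taurocholic acid plus 5 μM cold taurocholic acid and inhibitor (10-point 3-fold series from 10 μM top, 0.2% DMSO final), in duplicate. After ice stop and washes with 1 mM cold taurocholate, uptake was read by scintillation counting.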

The nature of series [2]: Bioavailability studies. The series is classed as in vivo, mice. Conditions: male, mouse, plasma, intravenous 1 mg/kg, oral 10 mg/kg. How it is done: Male mice (C57BL/6 or CD1) or Wistar rats of 8-9 weeks old were used. For each test compound, two groups of 3 animals each were used. One group was administered a single intravenous dose of 1 mg/kg (vehicle 100% DMSO) through the tail vein and the other group was administered a single oral dose of 10 mg/kg through gavage needle. The group that was administered an oral dose was fasted overnight. Blood samples were collected after 0.083, 0.25, 0.5, 1, 2, 4, 6, 8 and 24 hours following intravenous administration, and after 0.25, 0.5, 1, 2, 4, 6, 8 and 24 hours following oral administration. Blood samples were taken from saphenous vein. 0.2% EDTA was used as the anticoagulant. The samples were analyzed by a discovery grade bioanalytical method developed for the estimation of test compound in plasma, using an LC-MS/MS system.

Structures are written as SMILES.

On to `CCCCC1(CC)CN(c2ccccc2)c2cc(Br)c(OCCC(=O)O)cc2S(=O)(=O)C1` (racemic) [Example 1, 3-((7-Bromo-3-butyl-3-ethyl-1,1-dioxido-5-phenyl-2,3,4,5-tetrahydro-1,5-benzothiazepin-8-yl)oxy)propanoic acid], for which the IC50 in series [1] was found to be 18 nM.

With `CCCCC1(CCCC)CN(c2ccccc2)c2cc(SC)c(OCC(O)C(=O)O)cc2S(=O)(=O)C1` (racemic) [Example 9, 3-((3,3-Dibutyl-7-(methylthio)-1,1-dioxido-5-phenyl-2,3,4,5-tetrahydro-1,5-benzothiazepin-8-yl)oxy)-2-hydroxypropanoic acid], the IC50 in series [1] came to 3 nM.

With `CCCCC1(C)CN(c2ccccc2)c2cc(N(C)C)c(OCCC(=O)O)cc2S(=O)(=O)C1` (single isomer, unassigned) [29, enantiomer 1], the IC50 in series [1] stood at 5 nM.

As for `CCCCC1(CC)CN(c2ccccc2)c2cc(Cl)c(OC(C)CC(=O)O)cc2S(=O)(=O)C1` (single isomer, unassigned) [30, diastereomer 1], the IC50 in series [1] was 22 nM.

In the case of `CCCCC1(C)CN(c2ccccc2)c2cc(SC)c(OCC(O)C(=O)O)cc2S(=O)(=O)C1` (single isomer, unassigned) [32, diastereomer 1], the IC50 in series [1] was 3 nM.

Regarding `CCCCC1(CC)CN(c2ccccc2)c2cc(SC)c(OCC(C)(F)C(=O)O)cc2S(=O)(=O)C1` (single isomer, unassigned) [35, diastereomer 1], the IC50 in series [1] turned out to be 4 nM. In addition, the bioavailability in series [2] (CD1 mice) worked out at 8%.

Take `CCCCC1(CC)CN(c2ccccc2)c2cc(SC)c(OCC(C)(O)C(=O)O)cc2S(=O)(=O)C1` (single isomer, unassigned) [48, diastereomer 2]: the IC50 in series [1] was 16 nM.

For `CCCCC1(CC)CN(c2ccccc2)c2cc(Br)c(OCCC(=O)O)cc2S(=O)(=O)C1` (single isomer, unassigned) [Example 2, 3-((7-bromo-3-butyl-3-ethyl-1,1-dioxido-5-phenyl-2,3,4,5-tetrahydro-1,5-benzothiazepin-8-yl)oxy)propanoic acid], the IC50 in series [1] turned out to be 6 nM. In series [2] (C57BL/6 mice), the bioavailability came out at 104%.

For the molecule `CCCCC1(CC)CN(c2ccccc2)c2cc(Cl)c(OCCC(=O)O)cc2S(=O)(=O)C1` (single isomer, unassigned) [Example 6, 3-((3-butyl-7-chloro-3-ethyl-1,1-dioxido-5-phenyl-2,3,4,5-tetrahydro-1,5-benzothiazepin-8-yl)oxy)propanoic acid], the concentration for half-maximal inhibition (IC50) in series [1] was determined as 17 nM.

In the case of `CCCCC1(CCCC)CN(c2ccccc2)c2cc(SC)c(OCC(O)C(=O)O)cc2S(=O)(=O)C1` (single isomer, unassigned) [Example 10, 3-((3,3-dibutyl-7-(methylthio)-1,1-dioxido-5-phenyl-2,3,4,5-tetrahydro-1,5-benzothiazepin-8-yl)oxy)-2-hydroxypropanoic acid], in series [1], the IC50 was determined as 1 nM. Moreover, the bioavailability in series [2] (C57BL/6 mice) stood at 13%.

Consider `CCCCC1(CCCC)CN(c2ccccc2)c2cc(SC)c(OCC(O)C(=O)O)cc2S(=O)(=O)C1` (single isomer, unassigned) [Example 11, 3-((3,3-dibutyl-7-(methylthio)-1,1-dioxido-5-phenyl-2,3,4,5-tetrahydro-1,5-benzothiazepin-8-yl)oxy)-2-hydroxypropanoic acid], for which, in series [1], the IC50 was 4 nM.

Regarding `CCCCC1(CC)CN(c2ccccc2)c2cc(SC)c(OCCC(=O)O)cc2S(=O)(=O)C1` (single isomer, unassigned) [Example 13, 3-((3-butyl-3-ethyl-7-(methylthio)-1,1-dioxido-5-phenyl-2,3,4,5-tetrahydro-1,5-benzothiazepin-8-yl)oxy)propanoic acid], the IC50 in series [1] is 4 nM. For the same molecule, the bioavailability in series [2] (CD1 mice) stood at 102%.

In the case of `CCCCC1(C)CN(c2ccccc2)c2cc(SC)c(OCCC(=O)O)cc2S(=O)(=O)C1` (single isomer, unassigned) [Example 24, 3-((3-butyl-3-methyl-7-(methylthio)-1,1-dioxido-5-phenyl-2,3,4,5-tetrahydro-1,5-benzothiazepin-8-yl)oxy)propanoic acid], the IC50 in series [1] is 7 nM.

Take `CCCCC1(CCCC)CN(c2ccccc2)c2cc(Br)c(OCCC(=O)O)cc2S(=O)(=O)C1` [Example 4, 3-((7-Bromo-3,3-dibutyl-1,1-dioxido-5-phenyl-2,3,4,5-tetrahydro-1,5-benzothiazepin-8-yl)oxy)propanoic acid]: the IC50 in series [1] is 26 nM.

Regarding `CCCCC1(CCCC)CN(c2ccccc2)c2cc(SC)c(OCCC(=O)O)cc2S(=O)(=O)C1` [Example 15, 3-((3,3-dibutyl-7-(methylthio)-1,1-dioxido-5-phenyl-2,3,4,5-tetrahydro-1,5-benzothiazepin-8-yl)oxy)propanoic acid], in series [1], the IC50 stood at 32 nM.

Regarding `CCCCC1(CC)CN(c2ccccc2)c2cc(SC)c(OCC(C)(F)C(=O)O)cc2S(=O)(=O)C1` (centres unmarked) [Example 34, 3-((3-butyl-3-ethyl-7-(methylthio)-1,1-dioxido-5-phenyl-2,3,4,5-tetrahydro-1,5-benzothiazepin-8-yl)oxy)-2-fluoro-2-methylpropanoic acid], in series [1], the IC50 is 12 nM.

The IC50 is the concentration needed to halve the response being measured.
